ChEMBL document CHEMBL1127153, “Synthesis and anti-arthritic activity of a series of 1-aryl-3-dimethylamino-1,4-dihydroisoquinolines” (1993)

Tests used:
Type in all cases: functional
Rattus norvegicus [1] = test: Antiarthritic activity against rat adjuvant model after peroral administration of 25 mg/Kg of compound, activity expressed as %maximum inhibitory effect on arthritis score.
Rattus norvegicus [2] = test: Antiarthritic activity against rat adjuvant model after peroral administration of 25 mg/Kg of compound, activity expressed as %maximum inhibitory effect on injected paw depth
Rattus norvegicus [3] = test: Antiarthritic activity against rat adjuvant model after peroral administration of 6 mg/Kg of compound, activity expressed as %maximum inhibitory effect on arthritis score.
Rattus norvegicus [4] = test: Antiarthritic activity against rat adjuvant model after peroral administration of 6 mg/kg of compound, activity expressed as %maximum inhibitory effect on injected paw depth; settings: route oral
Rattus norvegicus [5] = test: The compound was examined for cell accumulation in the rat by Arthus reaction after peroral administration at 50 mg/Kg, activity expressed as percent inhibition.; settings: po
Rattus norvegicus [6] = test: The compound was examined for cell accumulation in the rat by pleural exudate model after peroral administration at 25 mg/Kg, activity expressed as percent inhibition.; settings: po
Rattus norvegicus [7] = test: Antiarthritic activity against rat adjuvant model after intravenous administration of 25 mg/Kg of compound, activity expressed as %maximum inhibitory effect on arthritis score.
Rattus norvegicus [8] = test: Antiarthritic activity against rat adjuvant model after intravenous administration of 25 mg/Kg of compound, activity expressed as %maximum inhibitory effect on injected paw depth
Rattus norvegicus [9] = test: Antiarthritic activity against rat adjuvant model after peroral administration of 50 mg/Kg of compound, activity expressed as %maximum inhibitory effect on injected paw depth
Rattus norvegicus [10] = test: Antiarthritic activity against rat adjuvant model after intravenous administration of 50 mg/Kg of compound, activity expressed as %maximum inhibitory effect on arthritis score.
Rattus norvegicus [11] = test: The compound was examined for cell accumulation in the rat by Arthus reaction after peroral administration at 25 mg/Kg, activity expressed as percent inhibition.; settings: po
Rattus norvegicus [12] = test: The compound was examined for cell accumulation in the rat by pleural exudate model after peroral administration at 12.5 mg/Kg, activity expressed as percent inhibition.; settings: po
Rattus norvegicus [13] = test: The compound was examined for cell accumulation in the rat by pleural exudate model after peroral administration at 6 mg/Kg, activity expressed as percent inhibition.; settings: po
Rattus norvegicus [14] = test: The compound was examined for cell accumulation in the rat by polyvinyl sponge model after peroral administration at 25 mg/Kg, activity expressed as percent inhibition.; settings: po
Rattus norvegicus [15] = test: Antiarthritic activity against rat adjuvant model after peroral administration of 25 mg/Kg of compound: activity expressed as %maximum inhibitory effect on arthritis score.
Rattus norvegicus [16] = test: Antiarthritic activity against rat adjuvant model after peroral administration of 12.5 mg/Kg of compound: activity expressed as %maximum inhibitory effect on arthritis score.
Rattus norvegicus [17] = test: Antiarthritic activity against rat adjuvant model after peroral administration of 12.5 mg/Kg of compound, activity expressed as %maximum inhibitory effect on injected paw depth
Rattus norvegicus [18] = test: The compound was examined for cell accumulation in the rat by Arthus reaction after peroral administration at 12.5mg/Kg, activity expressed as percent inhibition.; settings: po
Rattus norvegicus [19] = test: The compound was examined for cell accumulation in the rat by pleural exudate model after peroral administration at 12 mg/Kg, activity expressed as percent inhibition.; settings: po
Rattus norvegicus [20] = test: The compound was examined for cell accumulation in the rat by polyvinyl sponge model after peroral administration at 10 mg/Kg, activity expressed as percent inhibition.; settings: po
Rattus norvegicus [21] = test: Antiarthritic activity against rat adjuvant model after peroral administration of 12.5 mg/Kg of compound, activity expressed as %maximum inhibitory effect on arthritis score.
Rattus norvegicus [22] = test: The compound was examined for cell accumulation in the rat by pleural exudate model after oral administration at 25 mg/Kg, activity expressed as percent inhibition.
Rattus norvegicus [23] = test: The compound was examined for cell accumulation in the rat by polyvinyl sponge model after peroral administration at 12.5 mg/Kg, activity expressed as percent inhibition.; settings: po
Rattus norvegicus [24] = test: Antiarthritic activity against rat adjuvant model after peroral administration of 5 mg/Kg of compound, activity expressed as %maximum inhibitory effect on arthritis score.
Rattus norvegicus [25] = test: Antiarthritic activity against rat adjuvant model after peroral administration of 5 mg/Kg of compound, activity expressed as %maximum inhibitory effect on injected paw depth
Rattus norvegicus [26] = test: The compound was examined for cell accumulation in the rat by Arthus reaction after peroral administration at 12.5 mg/Kg, activity expressed as percent inhibition.; settings: po
Rattus norvegicus [27] = test: The compound was examined for cell accumulation in the rat by Arthus reaction after peroral administration at 6.25 mg/Kg, activity expressed as percent inhibition.; settings: po
Rattus norvegicus [28] = test: The compound was examined for cell accumulation in the rat by pleural exudate model after peroral administration at 3 mg/Kg, activity expressed as percent inhibition.; settings: po
Rattus norvegicus [29] = test: The compound was examined for cell accumulation in the rat by polyvinyl sponge model after peroral administration at 5 mg/Kg, activity expressed as percent inhibition.; settings: po
Rattus norvegicus [30] = test: Antiarthritic activity against rat adjuvant model after peroral administration of 10 mg/Kg of compound, activity expressed as %maximum inhibitory effect on arthritis score.
Rattus norvegicus [31] = test: Antiarthritic activity against rat adjuvant model after peroral administration of 10 mg/Kg of compound, activity expressed as %maximum inhibitory effect on injected paw depth

## CN(C)C1=NC(c2ccc(Cl)cc2)c2ccccc2C1 (stereo not drawn)
Rattus norvegicus [1]
  Max inhibitory effect: 29%
Rattus norvegicus [2]
  Max inhibitory effect: -1%

## CN(C)C1=NC(c2ccc(Cl)cc2)c2cc(Cl)ccc2C1.Cl (stereo not drawn)
Rattus norvegicus [1]
  Max inhibitory effect: 54%
Rattus norvegicus [2]
  Max inhibitory effect: 86%
Rattus norvegicus [3]
  Max inhibitory effect: 34%
Rattus norvegicus [4]
  Max inhibitory effect: 36%

## Br.CN(C)C1=NC(c2ccc(Cl)cc2)c2ccc(O)cc2C1 (stereo not drawn)
Rattus norvegicus [5]
  inhibition in vivo at 50 mg/kg: 18%
Rattus norvegicus [6]
  inhibition in vivo at 25 mg/kg: 21%
Rattus norvegicus [7]
  Max inhibitory effect: 44%
Rattus norvegicus [8]
  Max inhibitory effect: 46%
Rattus norvegicus [9]
  Max inhibitory effect: 5%
Rattus norvegicus [10]
  Max inhibitory effect: 16%

## CN(C)C1=NC(c2ccccc2Cl)c2ccccc2C1.Cl (stereo not drawn)
Rattus norvegicus [11]
  inhibition in vivo at 25 mg/kg: 19%
Rattus norvegicus [5]
  inhibition in vivo at 50 mg/kg: 34%
Rattus norvegicus [12]
  inhibition in vivo at 12.5 mg/kg: 28%
Rattus norvegicus [6]
  inhibition in vivo at 25 mg/kg: 48%
Rattus norvegicus [13]
  inhibition in vivo at 6 mg/kg: 27%
Rattus norvegicus [14]
  inhibition in vivo at 25 mg/kg: 19%
Rattus norvegicus [15]
  Max inhibitory effect: 36%
Rattus norvegicus [2]
  Max inhibitory effect: 30%
Rattus norvegicus [16]
  Max inhibitory effect: 10%
Rattus norvegicus [17]
  Max inhibitory effect: 12%

## Cl.Clc1ccc(C2N=C(N3CCOCC3)Cc3ccccc32)cc1 (stereo not drawn)
Rattus norvegicus [1]
  Max inhibitory effect: 5%
Rattus norvegicus [2]
  Max inhibitory effect: 7%

## CN(C)C1=NC(c2ccccc2F)c2ccccc2C1.Cl (stereo not drawn)
Rattus norvegicus [18]
  inhibition in vivo at 12.5 mg/kg: 28%
Rattus norvegicus [11]
  inhibition in vivo at 25 mg/kg: 44%
Rattus norvegicus [5]
  inhibition in vivo at 50 mg/kg: 55%
Rattus norvegicus [19]
  inhibition in vivo at 12 mg/kg: 33%
Rattus norvegicus [20]
  inhibition in vivo at 10 mg/kg: 12%
Rattus norvegicus [14]
  inhibition in vivo at 25 mg/kg: 24%
Rattus norvegicus [1]
  Max inhibitory effect: 37%
Rattus norvegicus [2]
  Max inhibitory effect: 13%

## CN(C)C1=NC(c2ccc(Cl)cc2Cl)c2ccccc2C1.Cl (stereo not drawn)
Rattus norvegicus [21]
  Max inhibitory effect: 15%
Rattus norvegicus [17]
  Max inhibitory effect: 44%

## CN(C)C1=NC(c2ccc(Cl)cc2)c2ccccc2C1.Cl (stereo not drawn)
Rattus norvegicus [22]
  inhibition in vivo at 25 mg/kg: 28%
Rattus norvegicus [12]
  inhibition in vivo at 12.5 mg/kg: 21%
Rattus norvegicus [13]
  inhibition in vivo at 6 mg/kg: 19%
Rattus norvegicus [23]
  inhibition in vivo at 12.5 mg/kg: 15%
Rattus norvegicus [14]
  inhibition in vivo at 25 mg/kg: 30%
Rattus norvegicus [24]
  Max inhibitory effect: 18%
Rattus norvegicus [25]
  Max inhibitory effect: 30%
Rattus norvegicus [21]
  Max inhibitory effect: 44%
Rattus norvegicus [17]
  Max inhibitory effect: 80%

## COc1ccc2c(c1)CC(N(C)C)=NC2c1ccc(Cl)cc1.Cl (stereo not drawn)
Rattus norvegicus [1]
  Max inhibitory effect: 11%
Rattus norvegicus [2]
  Max inhibitory effect: 0%

## CN(C)C1=NC(c2ccccc2)c2ccccc2C1.Cl (stereo not drawn)
Rattus norvegicus [1]
  Max inhibitory effect: 13%
Rattus norvegicus [2]
  Max inhibitory effect: -6%

## CN(C)C1=NC(c2cccc(Cl)c2)c2ccccc2C1.Cl (stereo not drawn)
Rattus norvegicus [26]
  inhibition in vivo at 12.5 mg/kg: 30%
Rattus norvegicus [11]
  inhibition in vivo at 25 mg/kg: 29%
Rattus norvegicus [5]
  inhibition in vivo at 50 mg/kg: 42%
Rattus norvegicus [27]
  inhibition in vivo at 6.25 mg/kg: 31%
Rattus norvegicus [12]
  inhibition in vivo at 12.5 mg/kg: 41%
Rattus norvegicus [28]
  inhibition in vivo at 3 mg/kg: 36%
Rattus norvegicus [13]
  inhibition in vivo at 6 mg/kg: 41%
Rattus norvegicus [20]
  inhibition in vivo at 10 mg/kg: 35%
Rattus norvegicus [29]
  inhibition in vivo at 5 mg/kg: 8%
Rattus norvegicus [1]
  Max inhibitory effect: 53%
Rattus norvegicus [2]
  Max inhibitory effect: 84%
Rattus norvegicus [30]
  Max inhibitory effect: 29%
Rattus norvegicus [31]
  Max inhibitory effect: 32%

## CN(C)C1=NC(c2ccc(N)cc2)c2ccccc2C1.Cl (stereo not drawn)
Rattus norvegicus [1]
  Max inhibitory effect: 9%
Rattus norvegicus [2]
  Max inhibitory effect: 6%

## Cl.Clc1ccc(C2N=C(NCc3ccccc3)Cc3ccccc32)cc1 (stereo not drawn)
Rattus norvegicus [1]
  Max inhibitory effect: -7%
Rattus norvegicus [2]
  Max inhibitory effect: 10%

## CN(C)C1=NC(c2ccc([N+](=O)[O-])cc2)c2ccccc2C1.Cl (stereo not drawn)
Rattus norvegicus [21]
  Max inhibitory effect: 30%
Rattus norvegicus [17]
  Max inhibitory effect: 33%

## Cl.NC1=NC(c2ccc(Cl)cc2)c2ccccc2C1 (stereo not drawn)
Rattus norvegicus [1]
  Max inhibitory effect: -3%
Rattus norvegicus [2]
  Max inhibitory effect: 0%
